{"source": "patent US11638427B2", "about": "“Methods and compositions for altering secondary metabolites in plants” (Impello Biosciences, Inc, priority 2020, dated 2023)", "key": {"Botrytis spp.": {"system": "Botrytis spp.", "assay": "Mold growth on jasmonate-infused plates, mold isolated from strawberry", "type": "cell-based", "settings": "1 mM, 5 mM, 10 mM, or 20 mM in plates", "experimental": "(§1) MDJ (TCI, CAS No.: 24851-98-7) and CJ were infused into potato dextrose agar (PDA, VWR Cat No.: 90003-494) petri dishes (100×15 mm VWR, Cat No: 25384-094) at concentrations ranging from 1 mM, 4.25 mM, and 10 mM. Each treatment was prepared using a technical grade stock solution of pure chemical (CJ or MDJ) diluted with TWEEN®-20 (VWR, CAS No.: […]). Culturable oyster mushroom and seedling mold served to create fungal mycelial plugs using a sterile 1 mL pipette tip (Eppendorf, Cat No.: 022491458) held upside down. The tips were used to make circle excisions (i.e., fungal plugs) from a mycelial mat grown on PDA with no biochemical infusions. Fungal pugs were then transferred to PDA infused with varying concentrations of CJ or MDJ, and control plates (no CJ or MDJ infusion) to monitor fungal growth at room temperature over time.\n(§2) Based on the above results in Cannabis spp., additional fungi from various crops was sampled and tested. Plates comprising various concentrations of MDJ or MJ were prepared as described above."}, "grapes": {"system": "grapes", "assay": "Fruit MDJ dips, 2 weeks observation", "type": "in vivo", "settings": "dip 5, 10, 20 mM", "experimental": "(§3) For fruit MDJ dips, all fruits were purchased from a local market as certified organic on 4/13/2021. Before any treatments, all fruits were submerged in boiling water to melt off any non-natural waxy coating then dried with a washcloth. Once fruits were clean and dry, they were submerged in varying concentrations of methyl dihydrojasmonate solutions. Each solution was prepared from a 1M MDJ Tween 20 stock solution diluted with RO water. 500 ml of each solution was prepared and reused for the different fruits. Each fruit was submerged for 20 seconds and then left to dry on a paper towel. After the fruits were dry the paper towels were removed and fruits left on the lab bench at room temperature grouped by treatment but not touching and monitored for visual differences for 2 weeks. The pineapple was the only fruit that was not fully submerged but instead sprayed till drip with the varying concentration of MDJ/Tween 20 solution. Then left to dry and monitored the same as the other fruits.\n(§4) Treatments and Sample Sizes:\n(§5) Control, water—4 lemons, 2 oranges, 1 pineapple, 1 mango, 4 strawberries, 2 grapes (˜10 grapes/bundle), 2 oranges, 4 avocados\n(§6) [5] mM MDJ—4 lemons, 3 oranges, 1 pineapple, 1 mango, 4 strawberries, 2 grapes, 2 oranges, 4 avocados\n(§7) [10] mM MDJ—4 lemons, 3 oranges, 0 pineapple, 1 mango, 4 strawberries, 2 grapes, 2 oranges, 4 avocados\n(§8) [20] mM MDJ—5 lemons, 3 oranges, 1 pineapple, 1 mango, 4 strawberries, 2 grapes, 2 oranges, 4 avocados\n(§9) Qualitative observations like color changes, firmness, mold appearance were monitored and at the end of the two weeks all fruits were cut in half to record and further observations. Penetrometer readings were recorded in the last week of observations."}, "oranges": {"system": "oranges", "assay": "Fruit MDJ dips, 2 weeks observation", "type": "in vivo", "settings": "dip 5, 10, 20 mM", "experimental": "as §3, §4, §5, §6, §7, §8, §9"}, "mangoes": {"system": "mangoes", "assay": "Fruit MDJ dips, 2 weeks observation", "type": "in vivo", "settings": "one fruit per group", "experimental": "as §3, §4, §5, §6, §7, §8, §9"}, "blood oranges": {"system": "blood oranges", "assay": "Fruit MDJ dips, 2 weeks observation", "type": "in vivo", "settings": "dip 5, 10, 20 mM; observation period 2 weeks", "experimental": "as §3, §4, §5, §6, §7, §8, §9"}, "lemons": {"system": "lemons", "assay": "Fruit MDJ dips, 2 weeks observation", "type": "in vivo", "settings": "dip 5, 10, 20 mM for 20 seconds; 2 weeks at room temperature", "experimental": "as §3, §4, §5, §6, §7, §8, §9"}, "avocados": {"system": "avocados", "assay": "Fruit MDJ dips, 2 weeks observation", "type": "in vivo", "experimental": "as §3, §4, §5, §6, §7, §8, §9"}, "Nectria pseudotrichia": {"system": "Nectria pseudotrichia", "assay": "Mold growth on jasmonate-infused plates, mold 2 isolated from avocado", "type": "cell-based", "settings": "various concentrations in plates", "experimental": "as §1, §2"}, "pineapples": {"system": "pineapples", "assay": "Fruit MDJ spray till drip, 2 weeks observation", "type": "in vivo", "experimental": "as §3, §4\nControl, water—4 lemons, 2 oranges, 1 pineapple, 1 mango, 4 strawberries, 2 grapes (˜10 grapes/bundle), 2 oranges, 4 avocados […]\nas §9"}}, "data": [{"smiles": "CCCCCC1C(=O)CCC1CC(=O)OC", "note": "(stereo not shown) [MDJ, methyl dihydrojasmonate]", "values": [{"measurement": "growth of mold isolated from strawberry", "setting": "Botrytis spp.", "result": "effective at preventing the growth"}, {"measurement": "mold or observable difference between groups", "setting": "grapes", "result": "did not exhibit any mold, or observable difference between groups"}, {"measurement": "mold", "setting": "oranges", "result": "no appearance of mold"}, {"measurement": "internal browning when cut open, relative to the control group", "setting": "mangoes; dip 5 mM", "result": "slightly less"}, {"measurement": "internal browning when cut open, relative to the control group", "setting": "mangoes; dip 10 mM", "result": "less still"}, {"measurement": "internal browning when cut open", "setting": "mangoes; dip 20 mM", "result": "no clear browning"}, {"measurement": "mold", "setting": "blood oranges", "result": "no mold in any of the treatment groups"}, {"measurement": "visual differences externally or internally", "setting": "lemons", "result": "no distinct visual differences"}, {"measurement": "browning when the fruits were cut open", "setting": "avocados; dip 5 mM", "result": "least signs of browning"}, {"measurement": "external browning", "setting": "avocados; dip 10 mM and 20 mM groups (and control group)", "result": "more external browning"}, {"measurement": "growth of mold isolated from avocado (mold 2)", "setting": "Nectria pseudotrichia", "result": "effective at preventing the growth"}, {"measurement": "crown appearance", "setting": "pineapples; spray till drip 20 mM, control had the greenest crown, followed by 5 mM", "result": "most dried out crown"}, {"measurement": "mold at the base of the pineapple", "setting": "pineapples; spray till drip, control, 5 mM and 20 mM groups, one pineapple per group", "result": "showed some mold"}]}]}
